For two compounds, IC50 results are on record in US20050009775A1 (priority 2001, published 2005).

The assay concerns HCV replicon in the 5-15 subline of Huh-7 cells. Kind of assay: Replicon ELISA (HCV replicon assay). The class given is cell-based, hepatitis C virus (HCV 1b). The settings on record: Hepatitis C virus; Huh-7 5-15 cells, HCV 1b replicon, 72 hours, NS4a ELISA. The source says: The 5-15 subline of Huh-7 cells (Lohmann, V., Korner, F., Koch, J-O., Herian, U., Theilmann, L. & Bartenschlager, R., 1999, Science, 2, pp 110-113) were used for these assays. These are human hepatocellular carcinoma cells stably transfected with an HCV replicon comprising the majority of the HCV 1b genome with the addition of a selectable marker gene, but lacking the genes encoding for all structural proteins and non-structural protein (NS) 2. The replicon RNA is self-replicating and fully functional viral proteins are translated from it. A quantifiable and specific reduction of expressed protein in the presence of a drug can be used as a measure of replicon inhibition.
Stock solutions of compound samples were formulated to 40 mM in DMSO. […]
ELISA step: Growth medium was removed from the plate and the cell monolayers were washed gently once with phosphate buffered saline (PBS) prior to fixing with a 1:1 mix of acetone:methanol for 5 minutes. […] The reaction was stopped by the addition of 25 μl per well of 2M sulphuric acid and the plates were read spectrophotometrically at 490 nm. […]
The absorbance values from all compound-free wells that had received both primary and secondary antibodies were averaged to obtain a positive control value. The mean absorbance value from the compound-free wells that had not received the primary antibody was used to provide the negative (background) control value. […]

Bounds are passed on as bounds.

Regarding `C[C@H](NP(=O)(OC[C@@H]1C[C@@H](O)[C@H](n2ccc(N)nc2=O)O1)Oc1ccccc1)C(=O)OCc1ccccc1` (some centres unmarked) [Example 3], the IC50 is less than 200 µM.

The compound `COC(=O)[C@H](C)NP(=O)(OC[C@@H]1C[C@@H](O)[C@H](n2ccc(N)nc2=O)O1)Oc1ccccc1` (some centres unmarked) [Example 2] registered an IC50 of less than 200 µM.
